Several values for one entry are separate records, joined by “and”; a condition that tells them apart may be missing. Equal values may be shown once. Read-outs that look alike come from different tables or passages of the source.

The nature of data set [1]: Pharmacokinetic analysis of T1-1 as a prodrug of MRS5474: plasma PK in mice after i.v. and p.o. dosing. In kind it is in vivo, Male CD-1 mice. On the set-up: AUClast/D: unit not given here. As to conditions: CD-1 mice; for MRT inf: read-out: MRTInf_obs. As to the method:
Pharmacokinetic Analysis of Compound T1-1 for Determination Utility as a Prodrug of MRS5474:
The dosing formulation (for i.v.) of T1-1 for mouse PK studies were prepared as 0.27 mg/mL solution of 10% DMSO+50% PEG400+40% WATER (Dissolved 1.19 mg of T1-1 in 0.441 mL of DMSO with vortexing and sonication, then added 2.204 mL of PEG400 and 1.763 mL of H2O with vortexing to obtain a solution). The dosing formulation (for p.o.) of T1-1 for mouse PK studies were prepared 2.71 mg/mL solution of 10% DMSO+50% PEG400+40% WATER (Dissolved 10.17 mg of in 0.375 mL of DMSO with vortexing and sonication, then added 1.876 mL […] of PEG400 and 1.501 mL of H2O with vortexing to obtain a solution.)
Animals: Male CD-1 mice (6-8 weeks of age), weighing 20-22 g; all animals were allowed to acclimate to this environment for one week prior to experimental manipulations.
Study Design: Study design The CD1 mice were given a single dose of T1-1 by bodyweight via intravenous (i.v.), or via oral gavage (p.o) administration. The blood and brain tissue samples were collected at intervals (h) of 0, 0.5, 1, 2, 4, 8, and 24. (n=3, each time point).
Plasma Sample Preparation: Approximately 0.3 mL blood will be collected at each time point. After collecting the blood at each time point, add 250 to 300 μL of the blood sample to Eppendorf tube containing EDTA solution+10 μL of inhibitor stock and vortexed for 15 minutes and then centrifugation at 4000 g for 5 minutes in a 4° C. centrifuge to obtain plasma.
The desired serial concentrations of working solutions were achieved by diluting a stock solution of the analyte with 50% acetonitiile in water solution. 5 μL of working solutions (5, 10, 20, 50, 100, 500, 1000, 5000, 10000 ng/mL) were added to 50 μL of the blank CD1 Mouse plasma to achieve calibration standards of 0.5-1000 ng/mL (0.5, 1, 2, 5, 10, 50, 100, 500, 1000 ng/mL) in a total volume of 55 μL. Five quality control samples at 1 ng/mL, 2 ng/mL, 5 ng/mL, 50 ng/mL, and 800 ng/mL for plasma were prepared independently of those used for the calibration curves. These QC samples were prepared on the day of analysis in the same way as calibration standards. 55 μL standards, 55 μL QC samples and 55 unknown samples (50 μL plasma with 5 μL blank solution) were added to 200 μL of acetonitrile containing IS mixture for precipitating protein respectively. Then the samples were vortexed for 30 s. After centrifugation at 4 degree Celsius, 3900 rpm for 15 min, the supernatant was diluted 3 times with water. 1 μL of diluted supernatant was injected into the LC/MS/MS system for quantitative analysis using (Shimadzu-DGU-20A5 integrated with AB AP15500 LCMS/MS instrument) with to determine plasma concentrations of T1-1 and the metabolite (parent compound) MRA5474. The data were analyzed for test article T1-1 and the metabolite (parent compound) MRA5474 for PK profile.
The mobile phase consisted of acetonitrile and water mixtures, solution A: 5% acetonitrile (0.1% formic acid) and solution B: 95% acetonitrile (0.1% formic acid) with gradient elution from 90 to 10% solution A over 1.71 min. The flow rate was 0.7 mL/min. YMC Triart C18 5 μm (50×2.1 mm) column was used for the separation of the sample components.
Results: Summary of IV and PO of Plasma Pharmacokinetic Parameters

The next data set deals with Homer 1a. The data set is described as follows: Quantitative real-time PCR analysis of brain tissue after oral gavage of T1-1. As to conditions: PO(2 h); for % Vehicle Mean: group mean of 3 mice; for % Vehicle Average / % Vehicle n = 1 / % Vehicle n = 2 / Relative mRNA expression (2^(−ΔCt)) Average / Relative mRNA expression(2^(−ΔCt)) n = 1 / Relative mRNA expression(2^(−ΔCt)) n = 2: individual mice M31-M33. It counts as in vivo, Male CD1 mice. As to the method:
Quantitative Real-Time PCR Analysis
Male CD1 mice were administered vehicle and test compound (T1-1) by oral gavage. After 2 hours, the were decapitated, and their brain samples were collected. Total RNA from the brain tissue were isolated using […], RNA integrity was confirmed, and the concentration was quantified by measuring the optical density. Reverse transcription was performed (Invitrogen) for cDNA synthesis according to the manufacturer's instructions. Real-time qPCR was performed on Real-Time PCR System using SYBR Green. The amplification reactions were performed as per the supplier's protocol.
(Real-time PCR tracks product formation cycle by cycle.)

Setting [2] is: IV(plasma), T1-1 dosed 1.35 mg/kg, analyte = label.
[3] abbreviates: male, mouse, IV(plasma), T1-1 dosed 1.35 mg/kg, analyte = label.
Where [4] appears, read: male, mouse, IV(plasma), T1-1 dosed 1.35 mg/kg, analyte = label (T1-1 or metabolite MRS5474).
The mark [5] stands for this setting: male, mouse, PO(plasma), T1-1 dosed 13.55 mg/kg, analyte = label.
Where [6] appears, read: IV(plasma), T1-1 dosed 1.35 mg/kg.
The mark [7] stands for this setting: PO(plasma), T1-1 dosed 13.55 mg/kg.

What is called AUC(0-inf) is total exposure, with the tail of the curve extrapolated. What is called AUC(0-t) is the area under the concentration-time curve up to a stated or last time point. The Cmax is the highest concentration seen after dosing. In general, Tmax refers to the time from dosing to the highest level. Broadly, the half-life is the time needed for the level to fall by half in the phase considered. Consider `O[C@@H]1[C@H](O)[C@@H]2C[C@@H]2[C@H]1n1cnc2c(NC(C3CC3)C3CC3)nc(Cl)nc21` [MRS5474, (1R,2R,3S,4R,5S)-4-(2-chloro-6-((dicyclopropylmethyl)amino)-9H-purin-9-yl) bicyclo [3.1.0] hexane-2,3-diol, reference compound], for which, in data set [1] (setting [2]), the “AUC_% Extrap_obs” value was 2.62%. For the same compound, the “AUC_% Extrap_obs” value in data set [1] (PO(plasma), T1-1 dosed 13.55 mg/kg, analyte = label) is reported as 0.08%. In data set [1] (setting [3]), the AUC(0-inf) turned out to be 0.321 µg·h/mL, the exposure AUC(0-t) turned out to be 0.313 µg·h/mL, the Cmax is 0.127 µg/mL and the Tmax amounted to 1 h. For the same compound, in data set [1] (setting [3]), the MRT inf was determined as 2.32 h. The half-life in data set [1] (setting [4]) was 1.55 h. In data set [1] (setting [5]), the AUC(0-inf) turned out to be 6.99 µg·h/mL, the exposure AUC(0-t) amounted to 6.99 µg·h/mL, the Cmax came out at 0.522 µg/mL and the time to peak (Tmax) turned out to be 1 h. In data set [1] (setting [5]), the half-life is 2.32 h and the MRT inf came to 6.36 h.
For the compound `O=C(NCN(c1nc(Cl)nc2c1ncn2[C@H]1[C@H](O)[C@H](O)[C@@H]2C[C@@H]21)C(C1CC1)C1CC1)c1ccccc1` [Compound T1-1, N-(((2-chloro-9-((1S,2R,3S,4R,5R)-3,4-dihydroxybicyclo [3.1.0]hexan-2-yl)-9H-purin-6-yl) (dicyclopropylmethyl)amino)methyl) benzamide], in the data set on Homer 1a (Homer 1a mRNA vs Actin), the “% Vehicle Mean” value was 112.74%; the “% Vehicle Average” value was 131.98% and 104.88% and 101.37%; the “% Vehicle n = 1” value is 123.98% and 96.37% and 100.64%; the “% Vehicle n = 2” value was 139.98% and 113.39% and 102.10%. In addition, in the data set on Homer 1a (Homer 1a mRNA vs GAPDH), the “% Vehicle Mean” value came out at 66.54%; the “% Vehicle Average” value is 75.27% and 51.17% and 73.18%; the “% Vehicle n = 1” value is 72.27% and 49.10% and 72.10%; the “% Vehicle n = 2” value is 78.27% and 53.24% and 74.26%. In the data set with Homer 1a (Homer 1a vs Actin), the “Relative mRNA expression (2^(−ΔCt)) Average” value is 0.51 and 0.41 and 0.40; the “Relative mRNA expression(2^(−ΔCt)) n = 1” value is 0.48 and 0.38 and 0.39; the “Relative mRNA expression(2^(−ΔCt)) n = 2” value is 0.55 and 0.44 and 0.40. Also, in the data set with Homer 1a (Homer 1a vs GAPDH), the “Relative mRNA expression (2^(−ΔCt)) Average” value is 0.1187 and 0.0807 and 0.1154; the “Relative mRNA expression(2^(−ΔCt)) n = 1” value was 0.1140 and 0.0774 and 0.1137; the “Relative mRNA expression(2^(−ΔCt)) n = 2” value is 0.1234 and 0.0840 and 0.1171. For the same compound, in data set [1] (setting [6]), the AUClast/D is given as 289.77 and the Vss_obs is on record as 1.57 L/kg. Moreover, in data set [1] (setting [2]), the “AUC_% Extrap_obs” value was determined as 0.93% and the Cl_obs stood at 3.419 L/h/kg. Also, in data set [1] (setting [7]), the AUClast/D came out at 34.47 and the F was 11.90%. In data set [1] (setting [3]), the AUC(0-inf) worked out at 0.395 µg·h/mL, the AUC(0-t) came out at 0.391 µg·h/mL, the C0 amounted to 0.613 µg/mL and the MRT inf stood at 0.46 h. The half-life in data set [1] (setting [4]) is 0.29 h. Besides, in data set [1] (setting [5]), the AUC(0-t) came to 0.467 µg·h/mL, the Cmax was determined as 0.132 µg/mL and the Tmax was determined as 0.5 h.

Source of the values: patent US20230002389A1, “ADENINE ANALOGS, PRODRUGS, DERIVATIVES, COMPOSITIONS AND USES THEREOF” (priority 2021, published 2023).
